Results: patent publication US6193992A, “Female sexual dysfunction treatment” (Pentech Pharmaceuticals, Inc., priority 1999, dated 2001)
“Also recorded” adds a separate entry of the source.

Legend:
[1] = apomorphine hydrochloride studies reported in the literature; cited from earlier work
[2] = system: vaginal and clitoral blood flow; test: Optimum dose for vasculogenic effect on nerve stimulated vaginal and clitoral blood flow; assay type: in vivo, New Zealand White female rabbits; details: female rabbits
Description: (§1) New Zealand White female rabbits (n=6, about 3.5-4 kg) were anesthetized with intravenous administration of pentobarbital. A 20 gauge angiocatheter was placed into the right carotid artery for measurement of systemic arterial pressure. A midline abdominal incision was made and the pelvic nerve branch to the vagina and clitoris was dissected. Nerve stimulation was performed with a Harvard subminiature electrode placed around the pelvic nerve branch to the vagina and clitoris and connected to a Grass SD-9 stimulator. Clitoral intracavernosal and vaginal wall blood flow were measured with a laser Doppler flow probe placed directly into the clitoral cavernosal tissue or into the vaginal wall and connected to a laser Doppler flowmeter.
(§2) Basal arterial blood pressure and clitoral and vaginal blood flow were each recorded before and then after stimulation of the pelvic nerve branch to the clitoris and vagina.

[3] = system: vaginal wall blood flow; test: Effect of apomorphine on vaginal wall blood flow (laser Doppler flow) before and after pelvic nerve stimulation; assay type: in vivo, New Zealand White female rabbits; details: female rabbits
Description: as §1, §2

[4] = system: clitoral intracavernosal blood flow; test: Effect of apomorphine on clitoral intracavernosal blood flow (laser Doppler flow) before and after pelvic nerve stimulation; assay type: in vivo, New Zealand White female rabbits; details: intravenous, female rabbits
Description: as §1, §2

[5] = system: sexual readiness (clitoral erectogenesis and vaginal engorgement on sexual stimulation); test: Extrapolation of rabbit optimum dose to human females (sexual readiness dose)
[6] = system: penile erection; details: cited from earlier work
[7] = system: systemic arterial pressure; test: Effect of apomorphine on systemic arterial pressure; assay type: in vivo, New Zealand White female rabbits; details: intravenous, female rabbits, FIG. 3
Description: as §1, §2

[8] = system: emesis; details: subcutaneous, about a 5-milligram dose; cited from earlier work

CN1CCc2cccc3c2[C@H]1Cc1ccc(O)c(O)c1-3 [apomorphine, Apomorphine]
pharmacokinetics, females versus males [1]: the same for both females and males | optimum intravenous dosage for vasculogenic effect on nerve stimulated vaginal and clitoral blood flow ([2]; body weight): about 100 μg/kg | optimal dose ([2]; intravenous): about 0.1 mg/kg | effect on nerve stimulation-induced increase in vaginal wall blood flow ([3]; 0.4 mg/kg): adverse effect | nerve stimulation-induced peak vaginal wall blood flow, concentration dependence ([3]; intravenous, 0.05 and 0.2 mg/kg, FIG. 2): concentration dependent increase | nerve stimulation-induced peak vaginal wall blood flow, significance vs before apomorphine administration ([3]; intravenous, 0.1 and 0.2 mg/kg, FIG. 2): statistically significant increase; also recorded: significant increase in vaginal wall blood flow | effect on basal vaginal wall blood flow ([3]; intravenous, before nerve stimulation): did not affect basal vaginal wall blood flow | nerve stimulation-induced peak clitoral intracavernosal blood flow, concentration dependence ([4]; 0.05 mg/kg to 0.2 mg/kg, FIG. 1): concentration dependent increase | nerve stimulation-induced peak clitoral intracavernosal blood flow, significance vs before apomorphine administration ([4]; 0.1 mg/kg, 0.2 mg/kg and 0.3 mg/kg, FIG. 1): statistically significant increase; also recorded: significant increase in nerve stimulation-induced peak clitoral intracavernosal blood flow | effect on baseline clitoral intracavernosal blood flow ([4]; before nerve stimulation): did not affect baseline clitoral intracavernosal blood flow | optimum dosage for human females ([5]; correlated from rabbit intravenous dosage (about 1/10)): ~10 µg/kg | effective dose in a human female ([5]; correlated from rabbit intravenous dose (about 1/10)): about 0.01 mg/kg | significant sexual readiness dose ([5]; sublingual tablet, women, about 70 kilograms): about 76 μg/kg | significant sexual readiness dosage ([5]; sublingual, 70 kg weight woman): about 76 micrograms/kg | erectogenic effect in males ([6]; males, research and clinical studies): erectogenic effect manifested by penile erection | induction of erection on oral administration ([6]; oral, psychogenic patient, U.S. Pat. No. 5,624,677 and Heaton et al.): can be used to induce an erection | plasma concentration maintained for stimulation sufficient to cause an erection ([6]; sublingual, patient): no more than 5.5 ng/ml | diastolic arterial pressure ([7]; increasing doses 0.05-0.4 mg/kg): concentration dependent moderate decrease | systolic arterial pressure [7]: minimal effect | emetic effect [8]: emetic
